Nine molecules from patent publication US20010029304A1, “Cyclopentane heptan (ENE)OIC acid, 2-heteroarylalkenyl derivatives as therapeutic agents” (ALLERGAN, priority 1996, published 2001) can be followed below.

Some results are limits rather than exact numbers.

One series has as its target T1, TP (Rattus norvegicus, UniProt P34978).
T1 construct: rings of the isolated rat thoracic aorta; from tissue; host or cells: rings of isolated rat thoracic aorta
T1 sequence (P34978 1-341): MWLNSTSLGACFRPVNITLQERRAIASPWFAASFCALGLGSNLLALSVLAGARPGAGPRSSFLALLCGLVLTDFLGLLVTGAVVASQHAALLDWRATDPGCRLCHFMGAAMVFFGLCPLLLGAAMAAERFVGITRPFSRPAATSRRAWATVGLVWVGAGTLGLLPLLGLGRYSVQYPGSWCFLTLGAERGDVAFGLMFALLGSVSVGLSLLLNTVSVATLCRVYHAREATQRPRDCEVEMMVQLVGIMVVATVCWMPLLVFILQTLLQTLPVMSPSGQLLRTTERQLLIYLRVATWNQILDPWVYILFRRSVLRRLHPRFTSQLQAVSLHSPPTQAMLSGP
The series is described as follows: TP-vasoconstrictor activity: contraction of rings of the isolated rat thoracic aorta. It is filed as cell-based. As to conditions: EC50 (nM) printed in the first part of the table head. On the procedure:
(§1) Activity at different prostanoid receptors was measured in vitro in isolated smooth muscle preparations. FP-activity was measured as contraction of the isolated feline iris sphincter. EP4-activity was measured as relaxation of smooth muscle of isolated rabbit jugular vein. TP-vasoconstrictor activity was measured as contraction of rings of the isolated rat thoracic aorta. Effects on platelets from healthy human donors were measured by incubating platelet-rich plasma with the compounds described herein. Inhibition of aggregation was determined by the ability of the compounds described herein to inhibit platelet aggregation in platelet-rich plasma induced by 20 μM adenosine diphosphate (ADP).

The test system of another series is Dog intraocular pressure. The series can be described thus: Dog intraocular pressure (applanation pneumatonometry) with hyperemia/miosis. It is filed as in vivo. Particulars: for Dog IOP (1 day): 25 μl to the ocular surface, IOP before and at 6 hours after drug; for Hyp: first part of Hyp/Mlosis cell; for Mlosis: second part of Hyp/Mlosis cell. As for the experimental part: The compounds were prepared at the said concentrations in a vehicle comprising 0.1% polysorbate 80 and 10 mM tris (hydroxy methyl) aminomethane hydrochloride (TRIS) base. Dogs were treated by administering 25 μl to the ocular surface, the contralateral eye received vehicle as a control. Intraocular pressure was measured by applanation pneumatonometry. Dog intraocular pressure was measured immediately before drug administration and at 6 hours thereafter.

The target in a further series is T2, EP4 (Oryctolagus cuniculus, UniProt Q28691).
T2 construct: smooth muscle of isolated rabbit jugular vein; from tissue; host or cells: isolated rabbit jugular vein smooth muscle
The series can be described thus: EP4-activity: relaxation of smooth muscle of isolated rabbit jugular vein. Format: cell-based. Particulars: nM printed only with EC50 in the table head. As for the experimental part:
as §1

T2 sequence (Q28691 whole entry): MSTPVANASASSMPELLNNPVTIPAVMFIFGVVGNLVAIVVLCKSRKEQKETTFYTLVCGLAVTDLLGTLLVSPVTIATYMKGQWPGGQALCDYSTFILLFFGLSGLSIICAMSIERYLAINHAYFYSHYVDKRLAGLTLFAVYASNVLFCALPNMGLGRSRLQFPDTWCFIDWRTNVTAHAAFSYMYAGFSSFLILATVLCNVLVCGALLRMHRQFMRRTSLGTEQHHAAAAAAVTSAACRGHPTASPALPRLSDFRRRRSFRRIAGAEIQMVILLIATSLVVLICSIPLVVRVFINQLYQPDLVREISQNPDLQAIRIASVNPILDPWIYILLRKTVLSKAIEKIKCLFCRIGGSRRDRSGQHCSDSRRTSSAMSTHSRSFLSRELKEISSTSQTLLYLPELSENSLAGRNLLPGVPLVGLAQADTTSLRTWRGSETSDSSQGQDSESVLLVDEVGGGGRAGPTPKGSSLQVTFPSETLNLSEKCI

The EC50 is the midpoint of the concentration-response curve. Higher therefore signals a need for much substance. `Cc1ccc(CCC(O)/C=C/C2C(O)CC(O)[C@@H]2C/C=C\CCCC(=O)O)o1` (some centres unmarked) came in with an EC50 on TP of over 10000 nM. Besides, in the series with Dog intraocular pressure (0.1%), the “Dog IOP (1 day)” value stood at 0.1%/−2.7, the Hyp is 1.13 and the Mlosis entry is recorded as “pinpoint”. Moreover, the “IC25 EP4” value against EP4 turned out to be 23 nM.

As to `O=C(O)CCC/C=C\C[C@H]1C(O)CC(O)C1/C=C/C(O)CCc1cc(Br)c(Br)s1` (some centres unmarked), the EC50 at TP was 692 nM. In addition, at EP4, the “IC25 EP4” value stood at 23 nM.

For the molecule `O=C(O)CCC/C=C\C[C@H]1C(O)CC(O)C1/C=C/C(O)CCc1sc2ccccc2c1Cl` (some centres unmarked), on EP4, the “IC25 EP4” value is reported as 21190 nM.

As to `NC(=O)CCC/C=C\C[C@H]1C(O)CC(O)C1/C=C/C(O)CCc1cc(Br)c(Br)s1` (some centres unmarked), the “IC25 EP4” value at EP4 is on record as 165 nM.

Consider `COC(/C=C/C1C(O)CC(O)[C@@H]1C/C=C\CCCC(=O)O)CCc1ccsc1C` (some centres unmarked), for which, at EP4, the “IC25 EP4” value came to 100 nM.

In the case of `COC(/C=C/C1C(O)CC(O)[C@@H]1C/C=C\CCCC(=O)O)CCc1ccco1` (some centres unmarked), the “IC25 EP4” value against EP4 worked out at 57 nM.

`NC(=O)CCC/C=C\C[C@H]1C(O)CC(O)C1/C=C/C(O)CCc1ccco1` (some centres unmarked): in the series on Dog intraocular pressure (0.01%), the “Dog IOP (1 day)” value is −3.2, the Hyp was determined as 1.5 and the Mlosis entry is listed as “pinpoint”. Further, in the series on Dog intraocular pressure (0.1%), the “Dog IOP (1 day)” value is −4.4, the Hyp is 1.0 and the Mlosis entry was “pinpoint”. The “IC25 EP4” value against EP4 was found to be 620 nM.

Consider `Cc1cc(CCC(O)/C=C/C2C(O)CC(O)[C@@H]2C/C=C\CCCC(N)=O)cs1` (some centres unmarked), for which, in the series on Dog intraocular pressure (0.1%), the “Dog IOP (1 day)” value is given as 0.1%/−3.6, the Hyp worked out at 0.6 and the Mlosis entry is reported as “pinpoint”. Also, the “IC25 EP4” value against EP4 was 1630 nM.

For `Cc1ccc(CCC(O)/C=C/C2C(O)CC(O)[C@@H]2C/C=C\CCCC(N)=O)o1` (some centres unmarked), in the series on Dog intraocular pressure (0.1%), the “Dog IOP (1 day)” value turned out to be 0.1%/−2.1, the Hyp is reported as 0.75 and the Mlosis result is on record as “pinpoint”. Further, the “IC25 EP4” value at EP4 is reported as 3760 nM.
